According to patent US12565500B2, “Substituted pyrrolo[1,2-b]pyridazines and pyrrolo[2,1-f][1,2,4]triazines as Btk inhibitors” (BIOGEN MA INC., priority 2019, dated 2026):

What was measured:
BTK = BTK (Homo sapiens (Human), UniProt Q06187); assay: In Vitro BTK Kinase Assay: Btk-PolyGAT-LS Assay; assay type: biochemical; details: ATP 10 μM, polyGAT 100 nM, BTK 0.25 nM
Method: In Vitro BTK Kinase Assay: Btk-PolyGAT-LS Assay
The purpose of the BTK in vitro assay is to determine compound potency against BTK through the measurement of IC50. Compound inhibition is measured after monitoring the amount of phosphorylation of a fluorescein-labeled polyGAT peptide (Invitrogen PV3611) in the presence of active BTK enzyme (Upstate 14-552), ATP, and inhibitor. The BTK kinase reaction was done in a black 96 well plate (costar 3694). For a typical assay, a […] aliquot of a ATP/peptide master mix (final concentration; ATP 10 μM, polyGAT 100 nM) in kinase buffer (10 mM Tris-HCl pH 7.5, 10 mM MgCl2, 200 μM Na3PO4, 5 mM DTT, 0.01% Triton X-100, and 0.2 mg/ml casein) is added to each well. Next, […] of a 4-fold, 40× compound titration in 100% DMSO solvent is added, followed by adding 15 uL of BTK enzyme mix in 1× kinase buffer (with a final concentration of 0.25 nM). The assay is incubated for 30 minutes before being stopped with […] of a 50 mM EDTA solution. Aliquots (5 uL) of the kinase reaction are transferred to a low volume white 384 well plate (Coming 3674), and 5 pL of a 2× detection buffer (Invitrogen PV3574, with 4 nM Tb-PY20 antibody, Invitrogen PV3552) is added. The plate is covered and incubated for 45 minutes at room temperature. Time resolved fluorescence (TRF) on Molecular Devices M5 (332 nm excitation; 488 nm emission; 518 nm fluorescein emission) is measured. IC50 values are calculated using a four parameter fit with 100% enzyme activity determined from the DMSO control and 0% activity from the EDTA control.
“†” represents an IC50 of greater than 1 μM and equal to or less than 10 μM. “††” represents an IC50 of greater than 10 nM and equal to or less than 1 μM (10 nM<IC50≤1 μM). “†††” represents an IC50 of greater than 1 nM and equal to or less than 10 nM (1 nM<IC50≤10 nM).

[1] = test system: CD69 expression on CD19+ B cells in human whole blood; assay: In Vitro whole blood CD69 Assay; assay type: cell-based; details: B-cell, human heparinized whole blood, anti-human IgD stimulation
Method: In Vitro whole blood CD69 Assay
Human heparinized venous blood from health donors was aliquoted into 96-well plate and “spiked” with serial dilutions of formula I compounds in DMSO or with DMSO without drug. The final concentration of DMSO in all wells was 0.1%. The plate was incubated at 37° C. for 30 min. Drug-containing samples were stimulated with 0.1 μg/mL mouse anti-human IgD-dextran (1A^62) or 20 μg/mL polyclonal rabbit F(ab′)2 anti-human IgD. Phosphate-buffered saline (PBS) was added to the negative control unstimulated sample and the plates were incubated overnight (18 to 22 hours) at 37° C. Cells were stained with fluorochrome-conjugated anti-CD19 and anti-CD69 antibodies. Lyse/fix solution was used to remove red blood cells by hypotonic lysis and to fix the remaining cells, which were then analyzed by flow cytometry. CD19+ B cells were gated and analyzed for CD69 expression. The percentage of B cells expressing CD69 was plotted versus the log 10 of the concentration of the drug and the best-fit curves (variable Hill slope) were generated to obtain the IC50 value.

Chain of BTK (Q06187 whole entry): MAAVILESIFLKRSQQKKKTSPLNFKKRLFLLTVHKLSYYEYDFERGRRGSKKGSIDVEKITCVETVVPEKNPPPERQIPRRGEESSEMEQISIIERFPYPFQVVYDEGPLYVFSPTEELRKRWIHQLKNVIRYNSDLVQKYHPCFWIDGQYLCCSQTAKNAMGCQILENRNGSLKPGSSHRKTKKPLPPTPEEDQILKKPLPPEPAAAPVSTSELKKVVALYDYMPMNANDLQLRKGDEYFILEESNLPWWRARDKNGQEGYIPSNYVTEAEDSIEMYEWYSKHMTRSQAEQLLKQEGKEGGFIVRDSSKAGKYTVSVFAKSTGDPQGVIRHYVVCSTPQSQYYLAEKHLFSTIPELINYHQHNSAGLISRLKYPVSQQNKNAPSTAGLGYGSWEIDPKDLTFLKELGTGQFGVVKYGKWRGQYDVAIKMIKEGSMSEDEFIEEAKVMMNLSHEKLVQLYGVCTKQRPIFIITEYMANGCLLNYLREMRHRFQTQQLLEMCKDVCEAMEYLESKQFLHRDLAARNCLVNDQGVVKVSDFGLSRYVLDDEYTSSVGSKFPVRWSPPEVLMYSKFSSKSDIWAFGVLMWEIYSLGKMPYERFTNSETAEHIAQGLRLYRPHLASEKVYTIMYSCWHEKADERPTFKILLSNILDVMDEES

Structure (SMILES) | IC50 (BTK) [nM] | IC50 [1] [nM]
Cc1cc(-c2ncnn3cc(-c4cnn(C)c4)cc23)ccc1CN1CCN(CC(C)C)C(C)C1=O (stereo not shown) [Compound 4, 4-isobutyl-3-methyl-1-(2-methyl-4-(6-(1-methyl-1H-pyrazol-4-yl)pyrrolo[2,1-f][1,2,4]triazin-4-yl)benzyl)piperazin-2-one] | 1 to 10 | ≥ 10000
Cc1cc(-c2ncnn3cccc23)ccc1CN1CCN(C2CC(F)(F)C2)C(C)C1=O (stereo not shown) [Compound 3, 4-(3,3-difluorocyclobutyl)-3-methyl-1-(2-methyl-4-(pyrrolo[2,1-f][1,2,4]triazin-4-yl)benzyl)piperazin-2-one] | 1000 to 10000 | 
Cc1cc(-c2ncnn3cccc23)ccc1CN1CCN(CC(C)C)C(C)C1=O (stereo not shown) [Compound 2, 4-isobutyl-3-methyl-1-(2-methyl-4-(pyrrolo[2,1-f][1,2,4]triazin-4-yl)benzyl)piperazin-2-one] | 10 to 1000 | ≥ 10000
Cc1cc(-c2ncnn3cccc23)ccc1CN1CCNC(C)C1=O (stereo not shown) [Compound 1, 3-methyl-1-(2-methyl-4-(pyrrolo[2,1-f][1,2,4]triazin-4-yl)benzyl)piperazin-2-one] | 1000 to 10000 | ≥ 10000
